According to patent US20250092039A1, “GLUTARIMIDE-CONTAINING PAN-KRAS-MUTANT DEGRADER COMPOUNDS AND USES THEREOF” (Tiger Biotherapeutics Inc., priority 2022, published 2025):

Experiments:
[1] = target: KRAS G12V (Homo sapiens (Human), UniProt P01116, G12V); assay: KRAS G12V degradation in SW620 cells (Western blot, DC50); type: cell-based; conditions: 24 hours
How it was run: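 SW620 cells (homozygous KRAS G12V) were treated with compound for 24 hours at 37° C. KRAS in lysates was measured by Western blot with fluorescent secondary antibodies and expressed relative to DMSO vehicle (100%). DC50 came from a four-parameter variable-slope dose-response fit.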

[2] = target: KRAS-G12V/RAF1 (Homo sapiens (Human), UniProt P01116, G12V); assay: KRAS/RAF1 binding inhibition assay (AlphaScreen)
How it was run: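 Binding of GppNHp-loaded KRAS G12V to the RAF1 RBD was measured by AlphaScreen with test compound present in 2% DMSO (final), 60 min incubation at 4° C. Signals were converted to % inhibition versus DMSO, and IC50 was obtained by variable-slope nonlinear regression.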

[3] = system: SW620 cells; assay: 3D cell growth inhibition of SW620 cells carrying endogenous KRAS G12V mutation (CellTiter-Glo 3D, GI50); type: cell-based; conditions: Homo sapiens, SW-620, 144 h; SW620 cells, 6 days; read-out: SW620 3D cell growth GI50
How it was run: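 SW620 cells (endogenous KRAS G12V) grown in 3D were dosed next day with compound from DMSO stocks at various concentrations, then incubated 6 days at 37° C.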

KRAS-G12V/RAF1, sequence (P01116-2 other isoform, or with tags, fused parts or gaps G12V): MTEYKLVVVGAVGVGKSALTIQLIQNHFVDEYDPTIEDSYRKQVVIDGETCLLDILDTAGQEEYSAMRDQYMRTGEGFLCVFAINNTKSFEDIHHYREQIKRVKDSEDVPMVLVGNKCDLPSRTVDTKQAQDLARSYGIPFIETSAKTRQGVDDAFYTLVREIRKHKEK
KRAS G12V, sequence (P01116-2 other isoform, or with tags, fused parts or gaps G12V): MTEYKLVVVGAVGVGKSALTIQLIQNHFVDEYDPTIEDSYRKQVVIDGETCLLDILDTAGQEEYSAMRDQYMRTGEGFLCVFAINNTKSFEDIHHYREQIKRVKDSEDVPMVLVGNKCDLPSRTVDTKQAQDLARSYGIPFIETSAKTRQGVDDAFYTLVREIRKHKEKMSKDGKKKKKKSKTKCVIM

DC50 [1] [nM] | IC50 [2] [nM] | GI50 [3] [nM] | SMILES
> 100 | > 200 | > 100 | Cc1nc(N)cc(-c2ncc3c(N4CCC[C@@](C)(O)C4)nc(OCC4(CN5CCC6(CC5)CC(CN5CCN(c7ccc8c(c7)CN([C@H]7CCC(=O)NC7=O)C8=O)CC5)C6)CC4)nc3c2F)c1C(F)(F)F [Compound 26, (S)-3-(5-(4-((7-((1-(((7-(6-amino-2-methyl-3-(trifluoromethyl)pyridin-4-yl)-8-fluoro-4-((R)-3-hydroxy-3-methylpiperidin-1-yl)pyrido[4,3-d]pyrimidin-2-yl)oxy)methyl)cyclopropyl)methyl)-7-azaspiro[3.5]nonan-2-yl)methyl)piperazin-1-yl)-1-oxoisoindolin-2-yl)piperidine-2,6-dione]
> 100 | > 200 | > 100 | CCc1c(F)ccc2cc(O)cc(-c3ncc4c(NCC5(N(C)C)CCC5)nc(OCC5(CN6CCC7(CC6)CC(CN6CCN(c8ccc9c(c8)CN([C@H]8CCC(=O)NC8=O)C9=O)CC6)C7)CC5)nc4c3F)c12 [Compound 3, (S)-3-(5-(4-((7-((1-(((4-(((1-(dimethylamino)cyclobutyl)methyl)amino)-7-(8-ethyl-7-fluoro-3-hydroxynaphthalen-1-yl)-8-fluoropyrido[4,3-d]pyrimidin-2-yl)oxy)methyl)cyclopropyl)methyl)-7-azaspiro[3.5]nonan-2-yl)methyl)piperazin-1-yl)-1-oxoisoindolin-2-yl)piperidine-2,6-dione]
> 100 | < 20 | 10 to 100 | CCc1cccc2cc(O)cc(-c3ncc4c(N5CCC[C@@](C)(O)C5)nc(OCC5(CN6CC[C@@H](CN7CC8(CCN(c9ccc%10c(c9)CN(C9CCC(=O)NC9=O)C%10=O)CC8)C7)C6)CC5)nc4c3F)c12 (stereo partly drawn) [Compound 18, 3-(5-(2-(((R)-1-((1-(((7-(8-ethyl-3-hydroxynaphthalen-1-yl)-8-fluoro-4-((R)-3-hydroxy-3-methylpiperidin-1-yl)pyrido[4,3-d]pyrimidin-2-yl)oxy)methyl)cyclopropyl)methyl)pyrrolidin-3-yl)methyl)-2,7-diazaspiro[3.5]nonan-7-yl)-1-oxoisoindolin-2-yl)piperidine-2,6-dione]

Further lines, the compound ahead of its results:

SMILES | DC50 [1] [nM] | IC50 [2] [nM] | GI50 [3] [nM]
CCc1c(F)ccc2cc(O)cc(-c3ncc4c(N5CCC[C@]6(CCO6)C5)nc(OCC5(CN6CCC7(CC6)CC(N6CCN(c8ccc9c(c8)CN([C@H]8CCC(=O)NC8=O)C9=O)CC6)C7)CC5)nc4c3F)c12 [Compound 218, (S)-3-(5-(4-(7-((1-(((7-(8-ethyl-7-fluoro-3-hydroxynaphthalen-1-yl)-8-fluoro-4-((S)-1-oxa-6-azaspiro[3.5]nonan-6-yl)pyrido[4,3-d]pyrimidin-2-yl)oxy)methyl)cyclopropyl)methyl)-7-azaspiro[3.5]nonan-2-yl)piperazin-1-yl)-1-oxoisoindolin-2-yl)piperidine-2,6-dione] | < 1 | 20 to 200 | < 10
CCc1cccc2cc(O)cc(-c3ncc4c(N5CCC[C@@](C)(O)C5)nc(OCC5(CN6CCC7(CC6)CC(F)(CN6CCN(c8ccc9c(c8)CN([C@H]8CCC(=O)NC8=O)C9=O)CC6)C7)CC5)nc4c3F)c12 [Compound 173, (S)-3-(5-(4-((7-((1-(((7-(8-ethyl-3-hydroxynaphthalen-1-yl)-8-fluoro-4-((R)-3-hydroxy-3-methylpiperidin-1-yl)pyrido[4,3-d]pyrimidin-2-yl)oxy)methyl)cyclopropyl)methyl)-2-fluoro-7-azaspiro[3.5]nonan-2-yl)methyl)piperazin-1-yl)-1-oxoisoindolin-2-yl)piperidine-2.6-dione] | < 1 | 20 to 200 | < 10
